Measurements reported in ChEMBL document CHEMBL4420080, “Inhibitors of sox18 protein activity for treating angiogenesis- and/or lymphangiogenesis-related diseases” (2018).
The source made the active and inactive calls. The rule behind the calls is not given here.

What was measured:
[1] = target: Endothelial transcription factor GATA-2 (Homo sapiens) (UniProt P23769); test: Inhibition of GATA2 in HUVEC assessed as reduction of GATA2 transcriptional activity by genome-wide RNA-seq and ChlP-seq analysis; type: cell-based
[2] = target: Beta-1 adrenergic receptor (Homo sapiens) (UniProt P08588); test: Inhibition of human adrenergic beta1 receptor at 10 uM relative to control
[3] = system: 4T1.2; test: Antitumor activity against mouse 4T1.2 cells implanted in BALB/c mouse assessed as median disease latency time at 50 mg/kg/day for 10 days (Rvb =40 days); type: functional
[4] = target: Protein c-Fos (Homo sapiens) (UniProt P01100); test: Inhibition of c-FOS in HUVEC assessed as reduction of c-FOS transcriptional activity by genome-wide RNA-seq and ChlP-seq analysis; type: cell-based
[5] = target: Androgen receptor (Homo sapiens) (UniProt P10275); test: Inhibition of human androgen receptor at 10 uM relative to control
[6] = target: Adenosine receptor A1 (Homo sapiens) (UniProt P30542); test: Inhibition of human adenosine A1 receptor at 10 uM relative to control
[7] = target: T1, Transcription factor SOX-18 (Mus musculus) (UniProt P43680); test: Competitive binding affinity to full-length mouse SOX18 expressed in Sf9 cells assessed as reduction in SOX1 8- DNA binding using FAM-labelled Prox1 -DNA element at 1 to 1000 uM incubated for 5 mins in dark at room temperature, 10 mins at 37 degC and 30 mins at room temperature by fluorescence polarization assay
T1 sequence (whole entry): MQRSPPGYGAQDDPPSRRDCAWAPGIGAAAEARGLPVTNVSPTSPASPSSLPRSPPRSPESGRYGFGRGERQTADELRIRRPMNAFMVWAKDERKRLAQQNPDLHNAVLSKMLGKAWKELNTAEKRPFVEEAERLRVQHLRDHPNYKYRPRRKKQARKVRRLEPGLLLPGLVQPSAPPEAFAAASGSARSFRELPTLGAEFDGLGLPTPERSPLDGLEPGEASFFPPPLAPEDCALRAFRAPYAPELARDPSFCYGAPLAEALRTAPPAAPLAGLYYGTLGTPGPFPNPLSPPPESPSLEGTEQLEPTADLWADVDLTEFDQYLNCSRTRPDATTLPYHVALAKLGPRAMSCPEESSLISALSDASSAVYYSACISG

[8] = species: Mus musculus; test: Inhibition of mouse phorbol ester receptor at 10 uM relative to control
[9] = system: Danio rerio; test: Induction of arterial and venous genes dys-regulation in zebrafish larvae harboring fli1 a:eGFP,-6.5kdrl:mCherry assessed as effect on […] gene expression at 1.5 uM dosed starting from 16 hpf and measured at 24 and 48 hpf by qRT-PCR analysis; type: functional, organism-based
[10] = species: Rattus norvegicus; test: Inhibition of rat rolipram binding site at 10 uM relative to control
[11] = target: Sodium-dependent noradrenaline transporter (Homo sapiens) (UniProt P23975); test: Inhibition of human NET at 10 uM relative to control
[12] = target: Transcription factor SOX-9 (Homo sapiens) (UniProt P48436); test: Inhibition of SOX9 (unknown origin) expressed in African green monkey COS7 cells assessed as reduction in SOX9 transcriptional activity at; type: cell-based
[13] = target: Beta-2 adrenergic receptor (Homo sapiens) (UniProt P07550); test: Inhibition of human adrenergic beta2 receptor at 10 uM relative to control
[14] = system: Cricetinae; test: Inhibition of hamster KATP channel at 10 uM relative to control
[15] = target: Histone deacetylase 3 (Homo sapiens) (UniProt O15379); test: Inhibition of human HDAC3 at 10 uM relative to control
[16] = target: Alpha-1A adrenergic receptor (Rattus norvegicus) (UniProt P43140); test: Inhibition of rat adrenergic alpha1A receptor at 10 uM relative to control
[17] = system: 4T1.2; test: Inhibition of tumor induced vascular response in mouse 4T1.2 cells implanted BALB/c mouse assessed as reduction in volume of the blood vessels in tumor region at 25 mg/kg/day for 10 days by ERG/EMCN-detection based immunofluorescent staining relative to control; type: functional; settings: 4T1.2, 240 h
[18] = target: Prostaglandin E2 receptor EP4 subtype (Homo sapiens) (UniProt P35408); test: Inhibition of human EP4 receptor at 10 uM relative to control
[19] = system: 4T1.2; test: Inhibition of tumor induced vascular response in mouse 4T1.2 cells implanted BALB/c mouse assessed as reduction in blood vessel coverage at 25 mg/kg/day for 10 days by bright field microscopy; type: functional, organism-based
[20] = target: Histamine H1 receptor (Homo sapiens) (UniProt P35367); test: Inhibition of human histamine H1 receptor at 10 uM relative to control
[21] = target: NAD-dependent protein deacetylase sirtuin-1 (Homo sapiens) (UniProt Q96EB6); test: Inhibition of human Sirtuin1 at 10 uM relative to control
[22] = system: Danio rerio; test: Induction of arterial and venous genes dys-regulation in zebrafish larvae harboring fli1 a:eGFP,-6.5kdrl:mCherry assessed as effect on notch1b gene expression at 1.5 uM dosed starting from 16 hpf and measured at 24 and 48 hpf by qRT-PCR analysis; type: functional, organism-based
[23] = system: Danio rerio; test: Induction of arterial and venous genes dys-regulation in zebrafish larvae harboring fli1 a:eGFP,-6.5kdrl:mCherry assessed as effect on hey1 gene expression at 1.5 uM dosed starting from 16 hpf and measured at 24 and 48 hpf by qRT-PCR analysis; type: functional, organism-based
[24] = target: hERG (KCNH2) (Homo sapiens, UniProt Q12809); test: Inhibition of human ERG at 10 uM relative to control
[25] = target: Muscarinic acetylcholine receptor M3 (Homo sapiens) (UniProt P20309); test: Inhibition of human muscarinic M3 receptor at 10 uM relative to control
[26] = target: Protein deacetylase HDAC6 (Homo sapiens) (UniProt Q9UBN7); test: Inhibition of human HDAC6 at 10 uM relative to control
[27] = target: GABA-A receptor; anion channel (Rattus norvegicus) (UniProt O09028+P15431+P18506+P18508+P19969+P20236+P23574+P23576+P28471+P28473+P30191+P62813+P63079+P63138+Q91ZM7+Q9ES14); test: Inhibition of rat GABAA channel flunitrazepam binding site at 10 uM relative to control; type: protein-complex assay
[28] = target: Adenosine receptor A2a (Homo sapiens) (UniProt P29274); test: Inhibition of human adenosine A2A receptor at 10 uM relative to control
[29] = target: Mu-type opioid receptor (Homo sapiens) (UniProt P35372); test: Inhibition of human mu opioid receptor at 10 uM relative to control
[30] = system: Danio rerio; test: Induction of arterial and venous genes dys-regulation in zebrafish larvae harboring fli1 a:eGFP,-6.5kdrl:mCherry assessed as effect on hey2 gene expression at 1.5 uM dosed starting from 16 hpf and measured at 24 and 48 hpf by qRT-PCR analysis; type: functional, organism-based
[31] = target: Alpha-2A adrenergic receptor (Homo sapiens) (UniProt P08913); test: Inhibition of human adrenergic alpha2A receptor at 10 uM relative to control
Alpha-2A adrenergic receptor (Homo sapiens), sequence (P08913 whole entry): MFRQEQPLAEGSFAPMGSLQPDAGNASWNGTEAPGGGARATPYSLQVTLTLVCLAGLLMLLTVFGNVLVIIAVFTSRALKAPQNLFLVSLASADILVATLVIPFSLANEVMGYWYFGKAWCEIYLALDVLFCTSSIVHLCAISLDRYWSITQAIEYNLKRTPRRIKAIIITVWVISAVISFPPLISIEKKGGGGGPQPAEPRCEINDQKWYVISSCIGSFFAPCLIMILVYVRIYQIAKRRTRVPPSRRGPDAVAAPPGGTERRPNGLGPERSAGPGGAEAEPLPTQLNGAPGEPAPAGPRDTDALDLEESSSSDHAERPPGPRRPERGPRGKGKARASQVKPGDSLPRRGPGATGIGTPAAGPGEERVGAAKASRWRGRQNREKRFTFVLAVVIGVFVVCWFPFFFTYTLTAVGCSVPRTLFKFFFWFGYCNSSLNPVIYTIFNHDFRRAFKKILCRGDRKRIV

Androgen receptor (Homo sapiens), sequence (P10275 whole entry): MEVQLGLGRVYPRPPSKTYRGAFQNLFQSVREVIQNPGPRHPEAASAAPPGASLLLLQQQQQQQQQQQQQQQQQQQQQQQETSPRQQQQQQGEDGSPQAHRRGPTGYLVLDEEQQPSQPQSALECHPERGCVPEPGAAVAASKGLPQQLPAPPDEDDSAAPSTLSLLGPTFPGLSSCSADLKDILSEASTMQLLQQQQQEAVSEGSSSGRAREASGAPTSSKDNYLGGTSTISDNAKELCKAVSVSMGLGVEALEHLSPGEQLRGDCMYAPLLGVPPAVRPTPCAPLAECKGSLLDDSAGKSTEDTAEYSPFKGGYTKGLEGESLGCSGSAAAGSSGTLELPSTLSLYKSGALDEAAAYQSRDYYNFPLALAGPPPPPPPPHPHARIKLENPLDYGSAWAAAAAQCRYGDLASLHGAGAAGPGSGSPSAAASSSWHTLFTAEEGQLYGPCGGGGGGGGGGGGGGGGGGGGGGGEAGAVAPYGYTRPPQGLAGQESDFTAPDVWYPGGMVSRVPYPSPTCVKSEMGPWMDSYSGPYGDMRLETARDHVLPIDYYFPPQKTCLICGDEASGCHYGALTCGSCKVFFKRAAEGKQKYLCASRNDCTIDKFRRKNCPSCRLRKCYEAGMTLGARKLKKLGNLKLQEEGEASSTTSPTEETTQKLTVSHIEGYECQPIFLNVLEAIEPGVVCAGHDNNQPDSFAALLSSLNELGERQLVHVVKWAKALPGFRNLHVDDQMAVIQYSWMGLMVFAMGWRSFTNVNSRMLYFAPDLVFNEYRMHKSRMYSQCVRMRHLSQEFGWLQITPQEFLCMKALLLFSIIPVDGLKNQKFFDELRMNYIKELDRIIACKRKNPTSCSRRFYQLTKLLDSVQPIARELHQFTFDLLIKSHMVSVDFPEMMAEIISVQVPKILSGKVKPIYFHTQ
Histamine H1 receptor (Homo sapiens), sequence (P35367 whole entry): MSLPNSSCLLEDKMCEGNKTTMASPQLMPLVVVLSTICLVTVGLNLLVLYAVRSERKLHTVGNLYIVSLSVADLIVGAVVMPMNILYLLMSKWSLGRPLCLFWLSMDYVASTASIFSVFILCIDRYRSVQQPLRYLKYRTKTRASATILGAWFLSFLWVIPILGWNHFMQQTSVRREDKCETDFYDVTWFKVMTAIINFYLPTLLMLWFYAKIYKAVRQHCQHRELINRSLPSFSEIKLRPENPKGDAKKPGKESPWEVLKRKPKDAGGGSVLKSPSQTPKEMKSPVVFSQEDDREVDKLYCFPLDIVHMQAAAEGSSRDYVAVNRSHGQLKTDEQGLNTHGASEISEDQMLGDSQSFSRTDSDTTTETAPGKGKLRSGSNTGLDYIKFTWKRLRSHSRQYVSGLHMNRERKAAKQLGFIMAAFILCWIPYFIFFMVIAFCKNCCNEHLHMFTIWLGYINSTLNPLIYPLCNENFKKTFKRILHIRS
Protein deacetylase HDAC6 (Homo sapiens), sequence (Q9UBN7 whole entry): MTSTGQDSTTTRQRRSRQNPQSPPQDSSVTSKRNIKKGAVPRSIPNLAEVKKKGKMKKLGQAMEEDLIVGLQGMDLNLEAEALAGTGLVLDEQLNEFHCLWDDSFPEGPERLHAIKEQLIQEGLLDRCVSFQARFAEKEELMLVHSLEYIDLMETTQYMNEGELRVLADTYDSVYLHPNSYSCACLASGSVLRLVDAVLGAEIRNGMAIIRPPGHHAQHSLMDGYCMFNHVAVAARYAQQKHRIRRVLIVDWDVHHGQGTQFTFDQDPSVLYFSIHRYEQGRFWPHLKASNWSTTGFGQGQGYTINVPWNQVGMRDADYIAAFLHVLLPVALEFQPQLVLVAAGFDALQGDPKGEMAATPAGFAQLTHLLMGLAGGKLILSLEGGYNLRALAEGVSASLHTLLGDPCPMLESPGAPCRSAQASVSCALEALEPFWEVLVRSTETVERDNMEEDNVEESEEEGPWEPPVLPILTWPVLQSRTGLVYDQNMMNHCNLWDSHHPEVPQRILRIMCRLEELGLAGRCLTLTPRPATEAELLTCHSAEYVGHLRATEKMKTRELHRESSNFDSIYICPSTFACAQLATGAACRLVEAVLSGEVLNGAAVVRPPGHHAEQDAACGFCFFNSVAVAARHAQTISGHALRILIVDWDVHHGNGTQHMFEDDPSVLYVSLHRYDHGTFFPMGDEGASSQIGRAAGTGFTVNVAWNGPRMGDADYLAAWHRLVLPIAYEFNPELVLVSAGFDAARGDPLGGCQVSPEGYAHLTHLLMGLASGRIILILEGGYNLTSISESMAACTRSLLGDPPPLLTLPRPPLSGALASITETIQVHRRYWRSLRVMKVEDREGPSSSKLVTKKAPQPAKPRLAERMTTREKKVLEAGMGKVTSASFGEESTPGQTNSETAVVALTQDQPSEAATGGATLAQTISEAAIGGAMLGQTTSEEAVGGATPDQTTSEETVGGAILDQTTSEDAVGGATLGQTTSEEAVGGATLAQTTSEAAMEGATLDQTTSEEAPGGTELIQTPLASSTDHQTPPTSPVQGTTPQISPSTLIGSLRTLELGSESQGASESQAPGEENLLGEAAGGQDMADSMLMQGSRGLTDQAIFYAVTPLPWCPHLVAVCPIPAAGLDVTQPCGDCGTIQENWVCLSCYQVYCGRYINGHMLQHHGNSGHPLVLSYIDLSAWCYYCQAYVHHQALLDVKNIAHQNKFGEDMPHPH
Transcription factor SOX-9 (Homo sapiens), sequence (P48436 whole entry): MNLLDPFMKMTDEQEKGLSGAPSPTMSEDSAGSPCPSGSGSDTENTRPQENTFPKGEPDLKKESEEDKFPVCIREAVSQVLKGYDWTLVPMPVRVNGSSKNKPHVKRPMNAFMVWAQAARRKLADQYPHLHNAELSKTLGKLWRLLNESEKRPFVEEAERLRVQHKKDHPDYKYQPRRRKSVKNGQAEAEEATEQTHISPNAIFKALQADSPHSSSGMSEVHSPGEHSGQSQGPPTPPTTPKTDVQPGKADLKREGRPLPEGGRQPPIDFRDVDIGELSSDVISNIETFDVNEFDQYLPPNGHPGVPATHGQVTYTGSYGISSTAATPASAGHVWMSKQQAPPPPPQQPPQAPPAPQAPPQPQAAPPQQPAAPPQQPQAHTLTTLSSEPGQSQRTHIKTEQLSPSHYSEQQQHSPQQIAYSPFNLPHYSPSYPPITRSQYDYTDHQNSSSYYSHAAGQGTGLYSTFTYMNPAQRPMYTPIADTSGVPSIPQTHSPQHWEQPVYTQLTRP
Alpha-1A adrenergic receptor (Rattus norvegicus), sequence (P43140 whole entry): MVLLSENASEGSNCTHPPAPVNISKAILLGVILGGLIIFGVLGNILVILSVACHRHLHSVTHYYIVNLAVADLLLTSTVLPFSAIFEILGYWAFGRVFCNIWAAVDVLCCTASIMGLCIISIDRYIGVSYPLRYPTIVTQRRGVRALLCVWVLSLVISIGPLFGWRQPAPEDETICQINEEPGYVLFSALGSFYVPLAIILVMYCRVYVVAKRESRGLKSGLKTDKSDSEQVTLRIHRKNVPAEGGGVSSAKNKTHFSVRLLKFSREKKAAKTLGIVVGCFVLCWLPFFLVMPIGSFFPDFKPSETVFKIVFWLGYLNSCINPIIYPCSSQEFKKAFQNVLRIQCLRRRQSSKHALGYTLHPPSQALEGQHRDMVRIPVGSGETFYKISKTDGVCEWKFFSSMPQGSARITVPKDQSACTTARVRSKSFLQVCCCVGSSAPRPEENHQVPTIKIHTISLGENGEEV
Sodium-dependent noradrenaline transporter (Homo sapiens), sequence (P23975 whole entry): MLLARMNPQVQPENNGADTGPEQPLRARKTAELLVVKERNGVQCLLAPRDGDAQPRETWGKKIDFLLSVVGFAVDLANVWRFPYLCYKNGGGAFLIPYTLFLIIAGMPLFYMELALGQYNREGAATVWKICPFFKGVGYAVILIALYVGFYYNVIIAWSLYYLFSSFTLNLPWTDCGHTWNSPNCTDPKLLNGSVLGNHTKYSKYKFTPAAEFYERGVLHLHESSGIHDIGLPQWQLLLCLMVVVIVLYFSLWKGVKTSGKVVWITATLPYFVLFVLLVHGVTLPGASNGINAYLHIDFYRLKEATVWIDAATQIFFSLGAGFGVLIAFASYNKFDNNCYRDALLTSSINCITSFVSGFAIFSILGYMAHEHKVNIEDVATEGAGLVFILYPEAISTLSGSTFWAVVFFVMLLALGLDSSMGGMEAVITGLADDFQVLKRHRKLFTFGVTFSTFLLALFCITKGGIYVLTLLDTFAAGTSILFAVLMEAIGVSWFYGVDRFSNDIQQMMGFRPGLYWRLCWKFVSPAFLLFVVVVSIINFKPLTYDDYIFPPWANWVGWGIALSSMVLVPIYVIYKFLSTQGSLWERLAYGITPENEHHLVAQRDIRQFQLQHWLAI
Adenosine receptor A1 (Homo sapiens), sequence (P30542 whole entry): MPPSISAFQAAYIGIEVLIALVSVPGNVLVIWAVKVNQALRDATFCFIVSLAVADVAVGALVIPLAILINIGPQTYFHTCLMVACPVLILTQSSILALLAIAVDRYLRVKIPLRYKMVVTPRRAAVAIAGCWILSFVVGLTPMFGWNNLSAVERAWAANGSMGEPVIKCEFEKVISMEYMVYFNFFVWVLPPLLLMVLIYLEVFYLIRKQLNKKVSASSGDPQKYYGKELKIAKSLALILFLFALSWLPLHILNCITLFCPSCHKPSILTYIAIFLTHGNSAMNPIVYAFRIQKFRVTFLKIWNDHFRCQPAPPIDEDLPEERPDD

## O=C(O)c1c(O)cccc1CCc1ccc2ccccc2c1
[1]
  inhibition: inactive
[2]
  inhibition: 6%
[3]
  Time: 73 days
[4]
  inhibition: inactive
[5]
  inhibition: 1%
[6]
  inhibition: -8%
[7]
  Activity: Active
[8]
  inhibition: 15%
[9]
  Activity: Active
[10]
  inhibition: 1%
[11]
  inhibition: 34%
[12]
  inhibition: inactive
[13]
  inhibition: 2%
[14]
  inhibition: 10%
[15]
  inhibition: -4.8%
[16]
  inhibition: 0%
[17]
  inhibition in vivo at 25 mg/kg/day: 55%
[18]
  inhibition: 27%
[19]
  inhibition: Active
[20]
  inhibition: 2%
[21]
  inhibition: 0%
[22]
  Activity: Active
[23]
  Activity: Active
[24]
  inhibition at 10 µM: -14%
[25]
  inhibition: 8%
[26]
  inhibition: 1.1%
[27]
  inhibition: -6%
[28]
  inhibition: 30%
[29]
  inhibition: 3%
[30]
  Activity: Active
[31]
  inhibition: 0%
